What was measured:
PPARg [1] = assay: PPARg transactivation assay in HEK-293 cells (GAL4-PPARγ / GAL4-luc); settings: for PPARg activation (fold) compared with CBG-Q: HEK-293 cells, 6 h treatment, FIG. 1; for increase of PPARg activity: 1 μM concentration; for PPARg transactivation (luciferase activity, fold induction over untreated cells): increasing doses, 6 h
N2a cells = assay: Neuroprotection assay, glutamate-induced excitotoxicity in N2a cells; type: cell-based; settings: 1 h pre-incubation, then 5 mM glutamate 24 h, FIG. 5
Description: N2a cells were pre-incubated for 1 h with compounds (II) to (V) and (XII) at the indicated concentrations. Then, cells were treated for 24 h with 5 mM glutamate to induce excitotoxicity, or cytotoxicity in neuronal cells induced by neurotransmitters. Cell viability was quantified by MTT assay. […] Control was set as 100% and data were referred to that value.
Cultured N2A cells were pre-incubated with the compounds II, III, IV, V and XII at the indicated concentrations for 1 h and then treated with 5 mM glutamate to induce excitotoxicity during 24 h (FIG. 5). Cytotoxicity was determined by the MTT method as described in example 3. Results are shown as mean±S.D. from at least three independent experiments, and expressed as percentage of cell viability against the control sample (−). Control was set as 100% and data were referred to that value.

PPARg [2] = assay: PPARg transactivation assay in human dermal primary fibroblasts; type: cell-based; settings: 6 h treatment, FIG. 2
Text: FIG. 2. PPARg Transactivation Assays in Human Dermal Primary Fibroblasts.

EAE mice = assay: Experimental autoimmune encephalomyelitis (EAE), clinical score; type: in vivo, C57BL/6 mice; settings: 5 mg/kg daily from day 6 post-immunization for 21 days, FIG. 8
Description: C57BL/6 mice were immunized with MOG35-55 and their clinical score evaluated daily. Mice were treated daily with compound (III) (10 mg/kg) on day 6 post-immunization and the 21 following days. […] Values are expressed as means±SEM for 10 animals per group.
C57BL/6 mice were immunized with MOG35-55 and their clinical score evaluated daily. Mice were treated daily with compound (XII) (5 mg/kg) on day 6 post-immunization and the 21 following days. […] Values are expressed as means±SEM for 6 animals per group.
EAE was induced in female C57BL/6 mice at 6-8 weeks of age by subcutaneous immunization with myelin oligodendrocyte glycoprotein polypeptide (MOG35-55) (300 μg) and 200 μg of Mycobacterium tuberculosis (H37Ra Difco, Franklin Lakes, N.J., USA) in a 1:1 mix with […] Freund's adjuvant (CFA, Sigma-Aldrich, Madrid, Spain). On the same day and 2 days later, mice were injected intraperitoneally (ip) with 200 ng of pertussis toxin (Sigma-Aldrich, Madrid, Spain) in 0.1 ml PBS. […] Treatment started at day 6 post-immunization (p.i.) and consisted in daily injections of compounds III (FIG. 6) and XII (FIG. 8) at the indicated doses or of the vehicle alone (DMSO/PBS) for the following 21 days. The mice were examined daily for clinical signs of EAE and disease scores were measured as follows: 0, no disease; 1, limp tail; 2, limp tail and hind limb weakness; 3, hind limb paralysis; 4, hind limb and front limb paralysis; 5, moribund and death. All animals were sacrificed 28 days (p.i.) for further analysis. Once sacrificed, animals were dissected and their spinal cords were rapidly removed and quickly frozen in RNAlater (Sigma-Aldric, Germany).

[3] = system: COX-2, iNOS, TNFα and IL-6; assay: 3NP model, inflammatory marker mRNAs in the striatum (real-time PCR); type: in vivo, C57BL/6 mice; settings: 3NP-treated mice, 10 mg/kg, FIG. 10 and FIG. 11
Description: Gene expression of inflammatory markers including COX-2, TNFα, IL-6 and iNOS, was down regulated in 3NP+compound III (10 mg/kg) treated mice compared with 3NP+Vehicle mice. Expression levels were calculated using the 2^−ΔΔct method. Values are expressed as means±SEM for 6 animals per group.
Gene expression of inflammatory markers including COX-2, TNFα, IL-6 and iNOS, was down regulated in 3NP+XII (10 mg/kg) treated mice compared with 3NP+Vehicle mice. Expression levels were calculated using the 2^−ΔΔct method. Values are expressed as means±SEM for 6 animals per group.
Lesions of the striatum were induced with 3-NP in adult (16 week old; 30 g) male C57BL/6 mice (Harlan Ibérica, Barcelona, Spain). […] The right hemisphere was used to dissect the striatum, which was quickly frozen in RNAlater (Sigma-Aldrich, Germany) to analyzed inflammatory markers were by Real Time PCR. […] We evaluated the general locomotor activity, the hindlimb clasping and dystonia, and the truncal dystonia. […]
Total RNA was isolated from striata (3NP model) or spinal cord (EAE model) using RNeasy Lipid Tissue Mini Kit (Qiagen, GmbH). The total amount of RNA extracted was quantitated by spectrometry at 260 nm and its purity from the ratio between the absorbance values at 260 and 280 nm. […] Expression levels were calculated using the 2^−ΔΔct method.

3NP-lesioned mice = assay: Huntington's disease 3NP model, behavioral score; type: in vivo, C57BL/6 mice; settings: 10 mg/kg i.p., four injections, FIG. 9
Description: Mice were subjected to behavioral tests for determining their neurological status after the treatment with compounds I (10 mg/kg) (A), III (10 mg/kg) (B) and XII (10 mg/kg) (C). Hind limb clasping, Locomotor activity, Hind limb dystonia and Truncal Dystonia were rated from 0 to 2 based on severity: a score of 0 typically indicates normal function and 2 seriously affected. Values are expressed as means±SEM for 8 animals per group.
(§1) Lesions of the striatum were induced with 3-NP in adult (16 week old; 30 g) male C57BL/6 mice (Harlan Ibérica, Barcelona, Spain). To this end, mice were subjected to seven intraperitoneal (i.p.) injections of 3NP (one injection each 12 hours) at a dose of 50 mg/kg (prepared in phosphate-buffered saline) for 3 days. These animals and their respective non-lesioned controls were used for pharmacological studies with compounds CBG-Q (compound I) and with compounds III and XII (FIG. 9). At least 6-8 animals were used per experimental group. Treatments consisted of four i.p. injections of the compounds at the indicated doses (one injection each 24 hours), or vehicle (DMSO 0.2%, BSA 5% in PBS) 30 min before the injections of 3NP. All animals were euthanized 12 hours after the last 3NP injection. Once euthanized, animals were dissected and their brains were rapidly removed. The right hemisphere was used to dissect the striatum, which was quickly frozen in RNAlater (Sigma-Aldrich, Germany) to analyzed inflammatory markers were by Real Time PCR. The left hemisphere was fixed in fresh 4% paraformaldehyde (in 0.1M phosphate buffered-saline) for 48 hours at 4° C. and embedded in paraffin wax for histological analysis. Mice were subjected to behavioral tests for determining their neurological status. We evaluated the general locomotor activity, the hindlimb clasping and dystonia, and the truncal dystonia. All behavioral tests were conducted prior to drug injections to avoid acute effects of the compounds under investigation.

[4] = system: striatal neurons, astrocytes and microglia; assay: 3NP model, immunohistochemistry of striatum (NeuN, GFAP, Iba-1); type: in vivo, C57BL/6 mice; settings: 3NP-lesioned mice, 10 mg/kg
Description: NeuN (neuronal marker), GFAP (astrocytes marker), and Ibal (microglia marker) were detected by immunostaining in the coronal sections of striatum of mice treated with vehicle, 3NP+ vehicle, 3NP+compoundXII (10 mg/kg) and XII (10 mg/kg). Quantification of NeuN (A), GFAP (B) and Ibal (C) positive cells in the mouse striatum. Total average number of neurons, astrocytes and microglia is shown. Values are expressed as means±SEM for 6 animals per group.
as §1, with “investigation. […]” for “investigation.”

[5] = text refers to FIG. 1 and FIG. 2

Compound | PPARg activation (fold) compared with CBG-Q (PPARg [1]) | protection from glutamate-induced cytotoxicity (cell viability, MTT) (N2a cells) | PPARg activation (fold) compared with CBG-Q (PPARg [2]) | other results
CCCCCC1=C(NC(C)C)C(=O)C(C/C=C(\C)CCC=C(C)C)=C(O)C1=O [Compound VIII, 6-(3,7-imethyl-octa-2,6-dienyl)-5-hydroxy-3-pentyl-2-isopropylamino-[1,4]benzoquinone] | higher efficiency than CBG-Q |  |  | 
CCCCCC1=C(C(=O)OC)C(=O)C(C/C=C(\C)CCC=C(C)C)=C(O)C1=O [Compound II, 6-(3,7-dimethyl-octa-2,6-dienyl)-5-hydroxy-3-pentyl-2-metoxycarbonil-[1,4]benzoquinone] | higher efficiency than CBG-Q | protect neuronal cells from glutamate-induced apoptosis | higher efficiency than CBG-Q | increase of PPARg activity (PPARg [1]; [5]): ≤ 12 times; potency to activate PPARg compared with CBG-Q (PPARg [1]; concentrations of 1 to 25 μM, text refers to FIG. 1 and FIG. 2): significantly more potent than compound CBG-Q
CCCCCC1=C(NC)C(=O)C(C/C=C(\C)CCC=C(C)C)=C(O)C1=O [Compound VII, 6-(3,7-dimethyl-octa-2,6-dienyl)-5-hydroxy-3-pentyl-2-methylamino-[1,4]benzoquinone] | higher efficiency than CBG-Q |  |  | 
CCCCCC1=C(C2=C(CCCCC)C(=O)C(O)=C(C/C=C(\C)CCC=C(C)C)C2=O)C(=O)C(C/C=C(\C)CCC=C(C)C)=C(O)C1=O [Compound XII, 3,3′-bis((E)-3,7-dimethylocta-2,6-dienyl)-4,4′-dihydroxy-6,6′-dipentyl-1,1′-bi(cyclohexa-3,6-diene)-2,2′,5,5′-tetraone] |  | protect neuronal cells from glutamate-induced apoptosis |  | clinical symptoms in EAE mice (EAE mice): alleviated the clinical symptoms in EAE mice to the same extent than compound III; up-regulation of pro-inflammatory markers COX-2, iNOS, TNFα and IL-6 in the striatum [3]: attenuated the up-regulation; clinical symptoms induced by 3-NP intoxication (hind limb clasping, locomotor activity, hind limb dystonia, truncal dystonia) (3NP-lesioned mice): clearly alleviates such symptomatology; striatal neurons, NeuN staining ([4]; FIG. 12A): preservation of striatal neurons; GFAP+ cells (astrocytes) in striatum ([4]; FIG. 12B): counteracted the lost of GFAP^+ cells; reactive microgliosis (Iba-1+ cells) in striatum ([4]; FIG. 12C): prevented the induction of reactive microgliosis
CCCCCNC1=C(CCCCC)C(=O)C(O)=C(C/C=C(\C)CCC=C(C)C)C1=O [Compound IV, 6-(3,7-dimethyl-octa-2,6-dienyl)-5-hydroxy-3-pentyl-2-pentylamino-[1,4]benzoquinone] | higher efficiency than CBG-Q | protect neuronal cells from glutamate-induced apoptosis | higher efficiency than CBG-Q | PPARg transactivation (luciferase activity, fold induction over untreated cells) (PPARg [1]; [5]): most active compounds
CCCCCC1=C(NCC(C)C)C(=O)C(C/C=C(\C)CCC=C(C)C)=C(O)C1=O [Compound V, 6-(3,7-dimethyl-octa-2,6-dienyl)-5-hydroxy-3-pentyl-2-isobutylamino [1,4]benzoquinone] | higher efficiency than CBG-Q | protect neuronal cells from glutamate-induced apoptosis | higher efficiency than CBG-Q | PPARg transactivation (luciferase activity, fold induction over untreated cells) (PPARg [1]; [5]): most active compounds
CN(CCOc1ccc(CC2SC(=O)NC2=O)cc1)c1ccccn1 (centres unmarked) [Rosiglitazone, reference compound] |  |  |  | increase of PPARg activity (PPARg [1]; [5]): more than 100 times

Reference: patent US9802880B2, “Cannabigerol derivatives” (VIVACELL BIOTECHNOLOGY ESPAÑA S.L., priority 2014, dated 2017)
